Laboratory results: patent EP1144365B1 (TANABE SEIYAKU CO., LTD., priority 1998, dated 2000)

Key:
[1] = target: T1, α4β1 integrin (Homo sapiens, UniProt P05556+P13612); assay: Jurkat-Endothelial Cell Adhesion Assay (Jurkat EC); assay type: cell-based; conditions: Jurkat cell adhesion to IL-1 stimulated endothelial cell monolayers
T1 construct: a T-cell line, Jurkat, known to express the α4β1 integrin; host or cells: Jurkat T-cell line
Protocol: The following assay established the activity of the present compounds in inhibiting β1-mediated cell adhesion in a representative in vitro system. This assay measures the adhesive interactions of a T-cell line, Jurkat, known to express the α4β1 integrin, to endothelial monolayers in the presence of test compounds. The test compounds were added in increasing concentrations to T-cells and then the T-cell compound mixture was added to IL-1 stimulated endothelial cell monolayers. The plates were incubated, washed and the percentage of attached cells was quantitated.
Human umbilical vein endothelial cells were purchased from Clonetics (San Diego, CA.) at passage number 2. The cells were grown on 0.5% porcine skin gelatin pre-coated flasks (Sigma, St. Louis MO.) in EGM-UV media (Clonetics, San Diego, CA) supplemented with 10% fetal bovine serum. Cells are refed every 2-3 days reaching confluence by day 4 to 6. […] The endothelial cells are not used following passage 6.
The T-cell line Jurkat was obtained from American Type Tissue Culture Collection (Rockville, MD) and the cells were cultured in RPMI containing 10 % fetal calf serum. The cells were washed twice in Hank's Balanced Salt Solution (HBSS) and resuspended in Dulbecco's Minimal Eagle's Media (DMEM) containing 2.5 mg/ml Human Serum Albumin (HSA). Jurkat cells (1x10^6 cells/ml) were stained with 10 ng/ml BCECF-AM (Molecular Probes, Eugene, OR)) in HBSS without phenol red. The cells were loaded with BCECF for 60 minutes in the dark at 37°C, washed 2 times, and resuspended in DMEM-HSA solution.
Confluent endothelial monolayers, grown in 96-well tissue culture plates, were stimulated for 4 hr. at 37 °C with 0.1 ng/ml (∼50 U/ml) recombinant IL-1 (Amgen, Thousand Oaks, CA). Following this incubation, the monolayers were washed twice with HBSS and 0.1 ml of DMEM-HSA solution was added. Jurkat cells (5 x 10^5 cells) were combined with the appropriate concentration of the test compound and 0.1 ml of the Jurkat cell-compound mixture was added to the endothelial cell monolayers. Generally, 100, 20, 5 and 1.25 µM compound concentrations were tested. […] Following this incubation, the monolayers were washed twice with PBS containing 1 mM calcium chloride and 1 mM magnesium chloride' and the plates were read using a Millipore Cytofluor 2300 (Marlboro, MA.). Fluorescence in each well was measured as Arbitrary Fluorescence Units and percent adhesion in the absence of compound was adjusted to 100% and the % adhesion in the presence of compound was calculated. Monolayers were also fixed in 3% paraformaldehyde and evaluated microscopically to verify the adhesion. This procedure is a modification of a previously published method (Cardarelli et al., J. Biol. Chem. 269:18668-18673 (1994)).

[2] = target: T2, α4β1 (Homo sapiens, UniProt P05556+P13612); assay: Jurkat-CS-1 assay; assay type: cell-based; conditions: Jurkat cell adhesion to immobilized CS-1 derived peptide
T2 construct: 100 µl of Jurkat cells (2.5 x 10^6 cells/ml) in DMEM plus BSA; host or cells: Jurkat T-cell line
T2 sequence (P13612 34-1032): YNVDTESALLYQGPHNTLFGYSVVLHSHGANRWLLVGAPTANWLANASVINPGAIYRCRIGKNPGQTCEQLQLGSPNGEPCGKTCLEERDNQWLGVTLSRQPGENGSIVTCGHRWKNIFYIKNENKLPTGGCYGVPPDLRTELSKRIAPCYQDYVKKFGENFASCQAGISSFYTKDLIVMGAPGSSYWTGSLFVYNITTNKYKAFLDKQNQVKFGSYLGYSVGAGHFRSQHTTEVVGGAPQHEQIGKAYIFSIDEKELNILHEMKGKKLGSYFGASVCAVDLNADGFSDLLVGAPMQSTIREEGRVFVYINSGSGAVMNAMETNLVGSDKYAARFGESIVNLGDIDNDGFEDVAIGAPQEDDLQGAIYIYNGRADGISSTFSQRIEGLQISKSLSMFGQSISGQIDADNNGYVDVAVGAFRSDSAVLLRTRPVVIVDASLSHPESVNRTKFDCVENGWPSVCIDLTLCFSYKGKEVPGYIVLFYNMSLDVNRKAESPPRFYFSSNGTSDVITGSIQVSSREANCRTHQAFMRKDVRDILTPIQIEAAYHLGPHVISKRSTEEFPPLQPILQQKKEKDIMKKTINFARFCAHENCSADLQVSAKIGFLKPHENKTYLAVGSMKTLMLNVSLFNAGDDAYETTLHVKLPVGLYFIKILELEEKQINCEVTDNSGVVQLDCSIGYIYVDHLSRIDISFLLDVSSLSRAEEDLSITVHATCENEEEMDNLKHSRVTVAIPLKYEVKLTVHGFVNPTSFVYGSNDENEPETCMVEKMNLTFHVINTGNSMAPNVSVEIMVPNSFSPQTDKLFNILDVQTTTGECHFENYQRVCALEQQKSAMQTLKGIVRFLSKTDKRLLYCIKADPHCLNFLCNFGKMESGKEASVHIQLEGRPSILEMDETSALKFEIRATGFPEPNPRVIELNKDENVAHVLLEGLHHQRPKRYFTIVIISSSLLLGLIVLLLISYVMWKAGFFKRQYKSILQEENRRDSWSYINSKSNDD
T2 sequence (P05556 21-798): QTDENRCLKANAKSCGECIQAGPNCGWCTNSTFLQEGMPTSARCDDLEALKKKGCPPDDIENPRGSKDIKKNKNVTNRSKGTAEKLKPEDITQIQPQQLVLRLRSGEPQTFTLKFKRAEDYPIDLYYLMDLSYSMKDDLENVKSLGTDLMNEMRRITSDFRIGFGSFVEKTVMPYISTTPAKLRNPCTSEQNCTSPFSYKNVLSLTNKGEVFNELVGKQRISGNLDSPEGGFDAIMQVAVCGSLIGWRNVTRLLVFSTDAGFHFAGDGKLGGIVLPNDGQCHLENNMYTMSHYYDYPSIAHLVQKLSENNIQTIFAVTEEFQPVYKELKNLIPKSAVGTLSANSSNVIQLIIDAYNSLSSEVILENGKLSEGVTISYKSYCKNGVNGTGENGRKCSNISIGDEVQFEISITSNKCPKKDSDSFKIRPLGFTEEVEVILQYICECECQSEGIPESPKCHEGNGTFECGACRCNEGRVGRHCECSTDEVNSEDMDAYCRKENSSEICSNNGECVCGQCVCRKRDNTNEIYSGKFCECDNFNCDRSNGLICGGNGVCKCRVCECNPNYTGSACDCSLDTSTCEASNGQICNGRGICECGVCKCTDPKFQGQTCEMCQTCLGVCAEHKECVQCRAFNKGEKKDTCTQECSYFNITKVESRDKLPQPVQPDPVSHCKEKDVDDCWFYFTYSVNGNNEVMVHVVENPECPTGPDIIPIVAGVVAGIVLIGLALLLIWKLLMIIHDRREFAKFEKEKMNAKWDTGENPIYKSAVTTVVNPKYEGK
Protocol: The CS-1 derived peptide, CLHPGEILDVPST, and the scrambled control peptide, CLHGPIELVSDPT, were synthesized on a Beckman 990 synthesizer using t-Boc methodology. The peptides were immobilized onto microtiter plates using the heterobifunctional crosslinker 3-(2-pyridyldithio)propionic acid N-hydroxysuccinimide ester (SPDP) as reported by Pierschbacher et al., Proc. Natl. Acad. USA, 80:1224-1227 (1983). Microtiter plates were coated with 20 µg/ml HSA for 2 hr. at room temperature, washed once with PBS and derivatized with 10 µg/ml SPDP for 1 hr. After washing, 100 µl of a 100 µg/ml cysteine containing peptide solution which had been recently dissolved was added to the wells and allowed to crosslink to the plates overnight at 4 °C. Unbound peptide was removed from plates by washing with PBS. To block non-reacted sites, the plates are coated with 100 µl of a 2.5 mg/ml BSA solution in PBS for 1 hr. at 37 °C. 100 µl of Jurkat cells (2.5 x 10^6 cells/ml) in DMEM plus BSA (2.5 mg/ml) was mixed with an appropriate concentration of the compound to be tested and the mixture was added to peptide coated dishes and incubated for 1 hr. at 37 °C. Generally 100, 20, 5 and 1.25 µM concentrations of the compound were tested.
Following this incubation the plates were washed once with PBS and the attached cells were fixed with 3% paraformaldehyde in PBS and stained with 0.5% toluidine blue in 3.7% formaldehyde. The cells were stained overnight at room temperature and the optical density at 590 nm of toluidine blue stained cells was determined using a vertical pathway spectrophotometer to quantitate attachment (VMAX Kinetic Microplate Reader, Molecular Devices, Menlo Park, CA). This procedure is a modification of a previously published method (Cardarelli et al, J. Biol. Chem., 269:18668-18673 (1994) and Cardarelli et al, Proc. Natl. Acad. Sci. USA, 83:2647-2651 (1986)).

T1 sequence (P13612 34-1032): as the sequence (P13612 34-1032) above
T1 sequence (P05556 21-798): as the sequence (P05556 21-798) above

Row | SMILES | IC50 [1] [nM] | IC50 [2] [nM]
1 | CC(=O)[C@H]1C[C@@H](CC(=O)N[C@@H](Cc2ccc(NC(=O)c3c(Cl)cccc3Cl)cc2)C(=O)O)C1(C)C [Example 88, (1S-cis)-N-[(3-Acetyl-2,2-dimethylcyclobutyl)acetyl]-4-[(2,6-dichlorobenzoyl)amino]-L-phenylalanine] | 5000 to 10000 | 500 to 1000
2 | O=C(O)c1ccc(C(=O)NC2(C(=O)N[C@@H](Cc3ccc(NC(=O)c4c(Cl)cccc4Cl)cc3)C(=O)O)CC3CCC2C3)nc1 (some centres unmarked) [Example 72] | ≤ 800 | 80 to 500
3 | CC1(C)[C@@H](C(=O)N[C@@H](Cc2ccc(NC(=O)c3c(Cl)cccc3Cl)cc2)C(=O)O)C[C@H]1C(=O)O [Example 99, (1S-cis)-N-[(3-Carboxy-2,2-dimethylcyclobutyl)carbonyl]-4-[(2,6-dichlorobenzoyl)amino]-L-phenylalanine] | 800 to 5000 | 80 to 500
4 | CC(=O)[C@H]1C[C@@H](C(=O)N[C@@H](Cc2ccc(NC(=O)c3c(Cl)cccc3Cl)cc2)C(=O)O)C1(C)C [Example 101, (1R-cis)-N-[(3-Acetyl-2,2-dimethyleyclobutyl)carbonyl]-4-[(2,6-dichlorobenzoyl)-amino]-L-phenylalanine] | 800 to 5000 | 80 to 500
5 | CC1(C)[C@@H](C(=O)O)C[C@H]1C(=O)N[C@@H](Cc1ccc(NC(=O)c2c(Cl)cccc2Cl)cc1)C(=O)O [Example 103, (1R-cis)-N-[(3-Carboxy-2,2-dimethylcyclobutyl)carbonyl]-4-[(2,6-dichlorobenzoyl)amino]-L-phenylalanine] | ≤ 800 | 80 to 500
6 | O=C(Nc1ccc(CC(NC(=O)C2CCCCC2NC(=O)C2CCCO2)C(=O)O)cc1)c1c(Cl)cccc1Cl (centres unmarked) [Example 86] | ≤ 800 | ≤ 80
7 | O=C(Nc1ccc(C[C@H](NC(=O)[C@@H]2CCC[C@H]2C(=O)O)C(=O)O)cc1)c1c(Cl)cccc1Cl [Example 9] | 800 to 5000 | 500 to 1000
8 | CC1=C(C(=O)N[C@@H](Cc2ccc(NC(=O)c3c(Cl)cccc3Cl)cc2)C(=O)O)C(C)(C)CC/C1=C\C#N [Example 120, N-[[(3E)-3-Cyanomethylene-2,6,6-trimethyl-1-cyclohexen-1-yl]carbonyl]-4-[(2,6-dichlorobenzoyl)amino]-L-phenylalanine] | ≤ 800 | ≤ 80
9 | CC1(C)[C@@H](C(=O)O)C[C@@H]1C(=O)N[C@@H](Cc1ccc(OCc2c(Cl)cccc2Cl)cc1)C(=O)O [Example 94, (1S-trans)-N-[(3-Carboxy-2,2-dimethylcyclobutyl)carbonyl]-4-[(2,6-dichlorophenyl)methoxy]-L-phenylalanine] | ≤ 800 | 80 to 500
10 | O=C(NC1(C(=O)N[C@@H](Cc2ccc(NC(=O)c3c(Cl)cccc3Cl)cc2)C(=O)O)CCCCC1)c1ccc([N+](=O)[O-])o1 [Example 67] | ≤ 800 | 80 to 500
11 | CC1=C(C(=O)N[C@@H](Cc2ccc(OCc3c(Cl)cccc3Cl)cc2)C(=O)O)C(C)(C)CC/C1=C\C(=O)O [Example 119, N-[[(3E)-3-Carboxymethylene-2,6,6-trimethyl-1-cyclohexen-1-yl]carbonyl]-4-O-(2,6-dichlorophenylmethyl)-L-tyrosine] | ≤ 800 | ≤ 80
12 | O=C(Nc1ccc(C[C@H](NC(=S)N2CCCC(C(=O)O)C2)C(=O)O)cc1)c1c(Cl)cccc1Cl (stereo partly drawn) [Example 117, 1-[[[(1S)-1-carboxy-2-[4-[(2,6-dichlorobenzoyl)amino]phenyl]ethyl]amino]thiocarbonyl]-3-piperidinecarboxylic acid] | ≤ 800 | 80 to 500
13 | O=C(O)C=C1CCC(C(=O)N[C@@H](Cc2ccc(NC(=O)c3c(Cl)cccc3Cl)cc2)C(=O)O)CC1 (stereo partly drawn) [Example 126, N-[[4-(Carboxymethylene)cyclohexyl]carbonyl]-4-[(2,6-dichlorobenzoyl)amino]-L-phenylalanine] | 800 to 5000 | ≤ 80
14 | O=C(O)c1cccc(C(=O)NC2(C(=O)N[C@@H](Cc3ccc(NC(=O)c4c(Cl)cccc4Cl)cc3)C(=O)O)CCCCC2)n1 [Example 62] | 800 to 5000 | 80 to 500
15 | CC(=O)c1cccc(OC(C)(C)C(=O)N[C@@H](Cc2ccc(NC(=O)c3c(Cl)cccc3Cl)cc2)C(=O)O)c1 [Example 19] | 800 to 5000 | 500 to 1000
16 | COC(=O)[C@H](Cc1ccc(NC(=O)c2c(Cl)cccc2Cl)cc1)NC(=O)c1cccc2c1CCC/C2=C/C(=O)O [Example 130, N-[[(5Z)-5-Carboxymethylene-7,8-dihydro-1(6H)-naphthyl]carbonyl]-4-[(2,6-dichlorobenzoyl)amino]-L-phenylalanine methyl ester] | 800 to 5000 | 500 to 1000
17 | O=C(Nc1ccc(C[C@H](NC(=O)C2(NC(=O)C3NC(C(=O)O)CS3)CC3CCC2C3)C(=O)O)cc1)c1c(Cl)cccc1Cl (some centres unmarked) [Example 75] | ≤ 800 | 80 to 500
18 | O=C(/C=C/c1ccc(C(=O)O)cc1)N[C@@H](Cc1ccc(NC(=O)c2c(Cl)cccc2Cl)cc1)C(=O)O [Example 123] | 5000 to 10000 | 500 to 1000
19 | O=C(C=C1CCC(C(=O)O)CC1)N[C@@H](Cc1ccc(NC(=O)c2c(Cl)cccc2Cl)cc1)C(=O)O (stereo partly drawn) [Example 127, N-[4-Carboxy-1-cyclohexylideneacetyl]-4-[(2,6-dichlorobenzoyl)amino]-L-phenylalanine] | 800 to 5000 | 80 to 500
20 | O=C(O)c1cccc(C(=O)NC2(C(=O)N[C@@H](Cc3ccc(NC(=O)c4c(Cl)cccc4Cl)cc3)C(=O)O)CC3CCC2C3)n1 (some centres unmarked) [Example 71] | 800 to 5000 | 80 to 500
21 | O=C(O)CCC(=O)NC1(C(=O)N[C@@H](Cc2ccc(NC(=O)c3c(Cl)cccc3Cl)cc2)C(=O)O)CCCCC1 [Example 46] | 800 to 5000 | 80 to 500
22 | O=C(NC1CCCCC1C(=O)NC(Cc1ccc(NC(=O)c2c(Cl)cccc2Cl)cc1)C(=O)O)c1ccc([N+](=O)[O-])o1 (centres unmarked) [Example 85] | ≤ 800 | ≤ 80
23 | CC1(C)[C@H](C(=O)O)C[C@H]1C(=O)N[C@@H](Cc1ccc(NC(=O)c2c(Cl)cccc2Cl)cc1)C(=O)O [Example 102, (1R-trans)-N-[(3-Carboxy-2,2-dimethylcyclobutyl)carbonyl]-4-[(2,6-dichlorobenzoyl)amino]-L-phenylalanine] | ≤ 800 | 80 to 500
24 | O=C(O)/C=C/c1ccc(C(=O)N[C@@H](Cc2ccc(NC(=O)c3c(Cl)cccc3Cl)cc2)C(=O)O)cc1 [Example 125, N-[[4-[(E)-3-Hydroxy-3-oxo-1-propenyl]phenyl]carbonyl]-4-[(2,6-dichlorobenzoyl)amino] -L-phenylalanine] | 800 to 5000 | ≤ 80
25 | CC(=O)[C@H]1C[C@H](C(=O)N[C@@H](Cc2ccc(NC(=O)c3ccc(Cl)nc3Cl)cc2)C(=O)O)C1(C)C [Example 106, (1S-trans)-N-[(3-Acetyl-2,2-dimethylcyclobutyl)carbonyl]-4-[[(2,6-dichloro-3-pyridinyl)carbonyl]amino]-L-phenylalanine] | 800 to 5000 | 80 to 500
